Measurements from publication PMC4919555 (EBioMedicine, 2016).
Values after ≈ are worked out from the molar mass of the structure shown. Like-named read-outs stand apart in the source and are kept apart here.

Key:
InhA [1] = molecular target: T1, InhA (Mycobacterium tuberculosis, UniProt P9WGR1); conditions: steady-state competition experiments
[2] = system: panel of Gram-positive and Gram-negative organisms; assay: General antimicrobial activity assay; assay type: cell-based; conditions: read-out: Antibacterial panel (MIC)
M. bovis BCG = assay type: cell-based
InhA [3] = molecular target: T1, InhA; assay: biochemical
human FAS = human FAS (Homo sapiens, UniProt P49327); assay: Selectivity against human FAS; assay type: biochemical
human FAS, sequence (P49327 whole entry): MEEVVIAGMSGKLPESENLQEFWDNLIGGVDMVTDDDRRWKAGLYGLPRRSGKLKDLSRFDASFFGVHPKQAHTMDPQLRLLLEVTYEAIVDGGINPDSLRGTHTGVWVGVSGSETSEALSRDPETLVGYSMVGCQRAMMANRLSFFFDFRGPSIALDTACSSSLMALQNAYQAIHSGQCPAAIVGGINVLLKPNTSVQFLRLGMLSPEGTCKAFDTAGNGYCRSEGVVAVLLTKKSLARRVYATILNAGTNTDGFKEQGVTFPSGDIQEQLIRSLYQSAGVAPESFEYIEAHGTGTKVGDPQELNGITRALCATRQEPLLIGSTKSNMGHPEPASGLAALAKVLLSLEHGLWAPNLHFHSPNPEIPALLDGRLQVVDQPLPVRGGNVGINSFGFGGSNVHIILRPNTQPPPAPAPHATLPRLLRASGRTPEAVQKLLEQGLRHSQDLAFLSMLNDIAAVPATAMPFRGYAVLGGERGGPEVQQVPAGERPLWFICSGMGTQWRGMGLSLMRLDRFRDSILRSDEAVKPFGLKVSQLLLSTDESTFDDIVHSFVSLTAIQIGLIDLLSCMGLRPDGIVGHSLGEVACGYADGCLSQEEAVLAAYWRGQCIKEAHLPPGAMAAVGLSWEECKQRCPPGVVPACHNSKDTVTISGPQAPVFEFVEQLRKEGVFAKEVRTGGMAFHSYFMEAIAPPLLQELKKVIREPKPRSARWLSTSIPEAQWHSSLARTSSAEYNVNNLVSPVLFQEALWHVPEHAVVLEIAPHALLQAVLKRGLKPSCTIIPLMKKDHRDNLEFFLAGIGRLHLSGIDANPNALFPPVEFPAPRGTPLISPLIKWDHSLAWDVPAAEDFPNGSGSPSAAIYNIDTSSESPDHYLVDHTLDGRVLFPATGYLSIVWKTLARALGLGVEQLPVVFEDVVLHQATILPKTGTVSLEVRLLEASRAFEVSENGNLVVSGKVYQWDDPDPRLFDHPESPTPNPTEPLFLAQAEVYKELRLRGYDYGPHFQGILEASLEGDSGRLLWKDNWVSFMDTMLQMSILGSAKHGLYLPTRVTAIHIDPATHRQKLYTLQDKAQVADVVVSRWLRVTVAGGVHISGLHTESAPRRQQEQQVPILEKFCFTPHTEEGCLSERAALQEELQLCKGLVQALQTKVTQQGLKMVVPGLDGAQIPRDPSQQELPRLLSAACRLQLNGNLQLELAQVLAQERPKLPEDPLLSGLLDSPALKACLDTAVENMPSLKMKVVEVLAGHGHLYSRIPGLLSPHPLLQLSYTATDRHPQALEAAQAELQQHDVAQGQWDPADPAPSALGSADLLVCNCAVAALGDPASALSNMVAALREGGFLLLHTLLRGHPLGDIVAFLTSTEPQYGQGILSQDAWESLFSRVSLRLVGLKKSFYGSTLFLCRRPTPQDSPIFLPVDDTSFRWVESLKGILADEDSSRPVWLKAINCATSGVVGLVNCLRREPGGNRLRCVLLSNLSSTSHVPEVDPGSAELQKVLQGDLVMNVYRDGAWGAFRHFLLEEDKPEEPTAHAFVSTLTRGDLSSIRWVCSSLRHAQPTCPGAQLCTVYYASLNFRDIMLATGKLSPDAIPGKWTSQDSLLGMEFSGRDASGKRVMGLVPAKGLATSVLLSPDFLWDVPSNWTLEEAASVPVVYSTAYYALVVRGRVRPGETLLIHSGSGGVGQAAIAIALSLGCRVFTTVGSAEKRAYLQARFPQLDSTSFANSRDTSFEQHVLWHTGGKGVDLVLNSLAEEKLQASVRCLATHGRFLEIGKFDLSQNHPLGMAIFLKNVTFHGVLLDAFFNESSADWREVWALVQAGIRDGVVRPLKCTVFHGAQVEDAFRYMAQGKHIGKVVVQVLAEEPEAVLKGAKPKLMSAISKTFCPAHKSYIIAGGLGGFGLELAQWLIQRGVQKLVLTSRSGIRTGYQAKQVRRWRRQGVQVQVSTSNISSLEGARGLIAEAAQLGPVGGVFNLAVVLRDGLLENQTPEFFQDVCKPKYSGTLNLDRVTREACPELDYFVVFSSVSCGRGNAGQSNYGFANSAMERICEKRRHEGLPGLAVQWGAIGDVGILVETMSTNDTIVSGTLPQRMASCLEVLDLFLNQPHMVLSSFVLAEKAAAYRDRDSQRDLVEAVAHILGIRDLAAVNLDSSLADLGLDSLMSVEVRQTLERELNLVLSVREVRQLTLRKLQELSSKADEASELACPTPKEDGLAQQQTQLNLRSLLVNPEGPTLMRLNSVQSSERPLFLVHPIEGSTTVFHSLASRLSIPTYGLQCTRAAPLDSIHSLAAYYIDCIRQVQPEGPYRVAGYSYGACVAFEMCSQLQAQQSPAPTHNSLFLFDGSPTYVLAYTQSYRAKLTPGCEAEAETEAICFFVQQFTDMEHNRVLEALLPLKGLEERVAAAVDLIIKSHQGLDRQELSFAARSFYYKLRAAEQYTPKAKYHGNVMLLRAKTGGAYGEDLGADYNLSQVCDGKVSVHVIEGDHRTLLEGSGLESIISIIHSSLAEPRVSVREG

in vivo = conditions: female, C57BL/6j, mouse; for Vd / clearance / half-life: iv; for Cmax / Tmax: po
M. tuberculosis H37Rv [4] = assay: microbe, parasite or virus in culture; assay type: cell-based; conditions: Mycobacterium tuberculosis, read-out: Mtb MIC
[5] = mice
HepG2 mammalian cells = assay type: cell-based; conditions: human
[6] = assay type: in vitro ADME; conditions: mouse liver microsomes
[7] = assay type: in vitro ADME; conditions: human liver microsomes
physchem = assay type: physicochemical; conditions: pH 7.4
[8] = genetic toxicity
Memb.; Nucleus; Mitoch. = assay type: cell-based
CYP 3A4 = CYP 3A4 (Homo sapiens, UniProt P08684); assay: biochemical
CYP 3A4, sequence (P08684 whole entry): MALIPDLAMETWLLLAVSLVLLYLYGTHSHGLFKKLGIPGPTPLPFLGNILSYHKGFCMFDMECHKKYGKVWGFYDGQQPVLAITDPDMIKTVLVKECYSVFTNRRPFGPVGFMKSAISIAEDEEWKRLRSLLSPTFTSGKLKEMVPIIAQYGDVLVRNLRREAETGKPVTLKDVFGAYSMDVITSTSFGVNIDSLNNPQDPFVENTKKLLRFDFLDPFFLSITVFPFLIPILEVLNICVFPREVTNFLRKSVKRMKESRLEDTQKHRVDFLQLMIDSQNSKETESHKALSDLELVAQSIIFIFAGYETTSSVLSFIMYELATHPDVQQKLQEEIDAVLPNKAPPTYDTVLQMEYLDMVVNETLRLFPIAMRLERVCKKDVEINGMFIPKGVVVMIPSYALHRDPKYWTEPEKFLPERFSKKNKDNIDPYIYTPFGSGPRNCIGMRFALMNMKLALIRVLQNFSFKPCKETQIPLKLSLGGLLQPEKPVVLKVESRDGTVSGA

M. tuberculosis H37Rv [9] = conditions: acute model
GFP expressing MTB = assay: Single-cell time-lapse imaging in microfluidic device; assay type: cell-based, M. tuberculosis
M. tuberculosis H37Rv [10] = assay: microbe, parasite or virus in culture; assay type: cell-based; conditions: Mycobacterium tuberculosis, read-out: Mtb intracell MIC
[11] = assay type: in vivo, C57BL/6 mice; conditions: mice
hERG potassium channel = hERG potassium channel (Homo sapiens, UniProt Q12809); assay: cell-based
hERG potassium channel, sequence (Q12809 whole entry): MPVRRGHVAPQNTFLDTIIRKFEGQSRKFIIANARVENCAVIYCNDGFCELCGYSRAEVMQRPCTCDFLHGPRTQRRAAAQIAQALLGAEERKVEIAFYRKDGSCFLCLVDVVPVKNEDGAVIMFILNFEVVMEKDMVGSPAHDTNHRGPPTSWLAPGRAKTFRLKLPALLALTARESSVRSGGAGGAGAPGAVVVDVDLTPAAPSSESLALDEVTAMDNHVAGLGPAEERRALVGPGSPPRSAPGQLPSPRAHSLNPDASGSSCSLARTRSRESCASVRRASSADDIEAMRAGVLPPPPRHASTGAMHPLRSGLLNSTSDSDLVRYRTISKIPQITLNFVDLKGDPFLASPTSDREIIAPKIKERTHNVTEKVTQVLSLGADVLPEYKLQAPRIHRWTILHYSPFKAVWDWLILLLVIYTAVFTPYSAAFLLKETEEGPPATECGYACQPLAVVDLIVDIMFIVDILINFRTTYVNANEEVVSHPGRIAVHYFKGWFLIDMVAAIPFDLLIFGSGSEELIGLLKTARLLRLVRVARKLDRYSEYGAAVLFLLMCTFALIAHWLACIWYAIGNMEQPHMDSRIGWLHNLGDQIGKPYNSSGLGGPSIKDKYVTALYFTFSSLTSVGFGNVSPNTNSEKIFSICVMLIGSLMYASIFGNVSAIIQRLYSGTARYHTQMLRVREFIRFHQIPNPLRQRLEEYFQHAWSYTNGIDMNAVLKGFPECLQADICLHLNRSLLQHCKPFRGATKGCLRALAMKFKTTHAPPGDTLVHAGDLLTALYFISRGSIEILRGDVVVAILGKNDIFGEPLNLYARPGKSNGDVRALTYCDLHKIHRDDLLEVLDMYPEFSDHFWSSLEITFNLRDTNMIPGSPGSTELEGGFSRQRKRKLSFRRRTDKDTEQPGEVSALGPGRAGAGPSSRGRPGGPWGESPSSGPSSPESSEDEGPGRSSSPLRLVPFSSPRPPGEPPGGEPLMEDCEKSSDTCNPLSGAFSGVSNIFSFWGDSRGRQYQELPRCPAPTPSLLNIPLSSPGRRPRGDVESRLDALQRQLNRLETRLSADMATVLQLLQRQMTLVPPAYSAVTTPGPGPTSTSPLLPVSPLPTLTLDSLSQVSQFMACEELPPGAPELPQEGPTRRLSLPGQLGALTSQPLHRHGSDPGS

M. tuberculosis = conditions: chronic model, 25 mg/kg, 2-month treatment
[12] = 5 μM, propidium iodide end point

T1 sequence (P9WGR1 whole entry, looked up): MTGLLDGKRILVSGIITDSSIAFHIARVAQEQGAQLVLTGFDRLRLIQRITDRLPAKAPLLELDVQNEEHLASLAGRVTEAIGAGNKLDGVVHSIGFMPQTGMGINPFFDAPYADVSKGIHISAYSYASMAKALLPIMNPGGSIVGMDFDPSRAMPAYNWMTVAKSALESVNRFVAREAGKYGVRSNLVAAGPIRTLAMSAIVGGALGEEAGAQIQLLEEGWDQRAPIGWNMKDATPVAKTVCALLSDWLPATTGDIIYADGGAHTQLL

In the case of `Cc1ccn(C(C)c2nnc(Nc3ccn(Cc4c(F)cccc4Cl)n3)s2)n1` (stereo not shown) [GSK613, N-(1-(2-chloro-6-fluorobenzyl)-1H-pyrazol-3-yl)-5-(1-(3-methyl-1H-pyrazol-1-yl)ethyl)-1,3,4-thiadiazol-2-amine], the “Mode of inhibition versus NADH” value (InhA [1]) is reported as “uncompetitive with NADH”, the “Mode of inhibition versus fatty acid substrate” value (InhA [1]) is reported as “competes with the fatty acid substrate” and the MIC [2] is reported as at least 64 µg/mL. The “Shift in MIC in strains overexpressing the target” value (M. bovis BCG) was at least 4 fold, the IC50 (InhA [3]) was 0.007 µM and the “Activity against human FAS” value (human FAS) was “inactive”. It also gave a Vd (in vivo; 0.5 mg/kg) of 2.5 L/kg, a clearance (in vivo; 0.5 mg/kg) of 157 mL/min/kg and a half-life (in vivo; 0.5 mg/kg) of 18 min. The Cmax (in vivo; 50 mg/kg) was 94.3 ng/mL, the Tmax (in vivo; 50 mg/kg) was 45 min and the MIC (M. tuberculosis H37Rv [4]) was at most 1 µM. The “DNAUC (dose normalized exposure)” value ([5]; Table 1 hits) was 5 ng·h/ml per mg/kg, the “HepG2 cytotoxicity Tox 50” value (HepG2 mammalian cells) was over 100 µM and the “In vitro Cli mouse” value [6] was 11.9 mL/min/g. The “In vitro Cli human” value [7] was 2.9 mL/min/g and the solubility (physchem) was 10 µM (≈ 4.18 µg/mL).

With `Cc1csc([C@](C)(O)c2nnc(Nc3ccn(Cc4csc(C)n4)n3)s2)n1` [GSK693, (S)-1-(4-methylthiazol-2-yl)-1-(5-((1-((2-methylthiazol-4-yl)methyl)-1H-pyrazol-3-yl)amino)-1,3,4-thiadiazol-2-yl)ethanol] the Ames test [8] was “Negative”, the IC50 (InhA [3]) was 0.007 µM and the “Cell Health (Memb.; Nucleus; Mitoch. )” value (Memb.; Nucleus; Mitoch.) was over 199.5 µM. The IC50 (CYP 3A4; CYP 3A4 IC50 VG, VG substrate) was 25.1 µM, the IC50 (CYP 3A4; CYP 3A4 IC50 VR, VR substrate) was over 50.1 µM and the Vd (in vivo; 4 mg/kg) was 2.58 L/kg. For the same molecule, the clearance (in vivo; 4 mg/kg) was 83 mL/min/kg, the half-life (in vivo; 4 mg/kg) was 56.4 min and the Cmax (in vivo; 100 mg/kg) was 37300 ng/mL. The Tmax (in vivo; 100 mg/kg) was 25.2 min, the MIC (M. tuberculosis H37Rv [4]) was 0.2 µM (≈ 0.0839 µg/mL) and the Bacterial load reduction (M. tuberculosis H37Rv [9]; 100 mg/kg oral) was 4 log10 colony forming units (CFU) per lung. For the same molecule, the “Clearance of bacilli (Log CFU)” value (M. tuberculosis H37Rv [9]; oral 30, 100 and 300 mg/kg, P < 0.001) was “significant clearance of bacilli compared with the controls”, the DNAUC ([5]; Table 3 lead) was 935.8 ng·h/ml per mg/kg and the “Total fraction of cells undergoing lysis” value (GFP expressing MTB; 5 μM GSK693 for 10 days, N = 32 microcolonies) was 53 ± 20%. The “Regrowth after washout of the drug” value (GFP expressing MTB; 5 μM for 10 days, washout 7 days) was “None of the intact bacteria exhibited regrowth”, the “Intact cells PI-positive after exposure” value (GFP expressing MTB; [12]) was “About 22%” and the “Intact cells still able to exclude PI” value (GFP expressing MTB; [12]) was 78%. The “HepG2 cytotoxicity Tox 50” value (HepG2 mammalian cells) was over 50 µM, the MIC (M. tuberculosis H37Rv [10]) was 0.2 µM (≈ 0.0839 µg/mL) and the “In vitro Cli mouse” value [6] was 2.1 mL/min/g. For the same molecule, the “Maximal no lethal dose (MNLD)” value [11] was “higher than 1000 mg/kg”, the “In vitro Cli human” value [7] was 0.2 mL/min/g and the solubility (physchem) was 413 µM (≈ 173 µg/mL). The IC50 (hERG potassium channel) was over 50 µM.

In the case of `NNC(=O)c1ccncc1` [INH, isoniazid], the “Total fraction of cells undergoing lysis” value (GFP expressing MTB; INH 0.5 µg/ml, N = 41 microcolonies) is reported as 42 ± 15%, the “Clearance of bacilli (Log CFU)” value (M. tuberculosis; P < 0.001) is reported as “significant clearance of bacilli compared with the controls” and the “Clearance of bacilli (Log CFU)” value (M. tuberculosis; P < 0.001, listed as isoniazid) is reported as “clear efficacy”.

For `COc1c(N2C[C@@H]3CCCN[C@@H]3C2)c(F)cc2c(=O)c(C(=O)O)cn(C3CC3)c12` [moxifloxacin, reference compound], the Bacterial load reduction (M. tuberculosis H37Rv [9]; 30 mg/kg) was 4 log10 colony forming units (CFU) per lung.
